According to patent US20050148553A1, “Use of tigecycline, alone, or in combination with rifampin to treat osteomyelitis and/or septic arthritis” (priority 2003, published 2005):
Values after ≈ are worked out from the molar mass of the structure shown. Values joined by “and” are separate entries in the source; they are usually repeats but may differ in a detail not shown here. Equal values may be shown once.

Tests used:
Acinetobacter baumannii = experiment: Compassionate use study, osteomyelitis patient; type: in vivo, human; settings: 50 mg every 12 or 24 hours for two months; within one month
Experimental: The patient was treated with meropenem and tobramycin. […] The patient was then treated with tigecycline for two months with either 50 mg every 12 hours or 50 mg every 24 hours.

[1] = test system: methicillin-resistant S. aureus
Experimental: Preparation of the Infective Media: S. aureus was incubated overnight in Mueller Hinton Broth (Difco Laboratories, Detroit, Mich.) medium spiked with 40 μg/ml oxacillin, at 37° C. The bacterial concentration of the culture was adjusted to 10^7 CFU's/ml.
Rabbit Infection Procedure: New Zealand white rabbits (Ray Nicholl's Rabbitry, Lumberton, Tex.), eight to 12 weeks old and weighing 2.0 to 3.5 kg, were utilized for the study. After anesthesia was given, an 18-gauge needle was inserted percutaneously through the lateral aspect of the left tibial metaphysis into the intramedullary cavity. Next, 0.15 ml of 5% sodium morrhuate (American Regent Laboratories, Inc., Shirley, N.Y.), 0.1 ml of S. aureus (10^7 CFU/ml), and 0.2 ml of sterile, normal saline, 0.9%, were injected sequentially.
Group 1 (control group): infected but left untreated for the duration of the study. Group 2: rabbits were treated for 4 weeks with subcutaneous vancomycin at 30 mg/kg twice daily. Group 3: rabbits were treated for 4 weeks with subcutaneous vancomycin at 30 mg/kg twice daily plus oral rifampin at 40 mg/kg twice daily in 0.5% methylcellulose. Group 4: rabbits were treated for 4 weeks with subcutaneous tigecycline at 14 mg/kg twice daily. Group 5: rabbits were treated for 4 weeks with subcutaneous tigecycline at the same dose as in the rabbits in Group 4, plus oral rifampin at 40 mg/kg twice daily in 0.5% methylcellulose. […] Group 6: rabbits were treated for 1 week with subcutaneous tigecycline at the same dose as in Group 4, but were sacrificed 3 hours after administration of the last dose. At that time, blood and infected bone samples were collected and tigecycline concentration was determined. Groups 1 to 5 were left untreated for 2 weeks after treatment phase of the experiment and sacrificed at 8 weeks after infection.
Radiographs of bilateral tibias were taken at initiation of therapy (2 weeks after infection), at the end of antibiotic therapy (6 weeks after infection), and at sacrifice (8 weeks after infection). Radiographs were scored according to a visual scale (Table 1) by three investigators, each blinded to the treatment group, and the grades were averaged.
After sacrifice, gross cultures were performed for right and left tibias. Quantitative counts of S. aureus, in CFUs per gram, of left tibial bone and marrow were determined for all study groups.
Culture Preparation: The bone marrow and the intramedullary canal of bilateral tibias were swabbed with sterile cotton tip applicators for gross cultures analysis of left tibias and quality assurance checks of right tibias. The inoculated applicator was streaked onto blood plates and then placed into 5 ml of sterile TSB. The plates and tubes were then incubated at 37° C. for 24 hours and growth and/or turbidity was recorded.
The bone marrow was placed into a sterile, 50 ml centrifuge tube and weighed. The bone fragments were broken into 0.5 cm^2 chips, placed into a sterile, 50 ml centrifuge tube, and the final product weighed. Normal sterile saline, 0.9%, was added in a 3 to 1 ratio (3 ml saline/gram of bone or marrow) and the suspensions were vortexed for 2 minutes. Six ten-fold dilutions of each suspension were prepared with sterile, normal saline, 0.9%. Twenty-microliter samples of each dilution, including the initial suspension, was plated, in triplicate, onto blood agar plates and incubated at 37° C. for 24 hours. CFUs were counted at the greatest dilution for each tibia sample.

Mycobacterium abscessus = type: in vivo, human; settings: vertebral osteomyelitis patient
Experimental: Debridement was accomplished after one year of infection with placement of hardware. […] The amikacin was later stopped due to renal damage. Linezolid and azithromycin were later added to the treatment regimen. The organism was determined to be resistant to moxifloxacin.
The patient presented later with a new vertebral osteomyelitis just above the site of the old infection. A biopsy was performed and it was determined that no additional debridement was needed. […] Tigecycline was administered up to MIC 0.25 micrograms/ml. The patient's white blood cell count was normal while hypogammaglobulinemia was present and lymphocytic function decreased. The patient had also been under treatment with IL-12, but IL-12 was held during antibiotic treatment.

[2] = test system: vancomycin resistant E. faecium; settings: cited from earlier work
[3] = Whole body autoradiography after 30-minute 3 mg/kg IV infusion of [^14C]-tigecycline; type: in vivo, Long-Evans rats
Experimental: Male Sprague-Dawley and Long-Evans rats were obtained from Charles River Breeding Laboratories, Raleigh, N.C., and were quarantined for at least one week prior to the start of the study. […] The dosing solution was diluted and radioassayed directly in Ultima Gold scintillation counting cocktail (Packard Inc.). […] All pumps were calibrated prior to the administration of the compound. Rats were anesthetized with isoflurane prior to cardiac puncture exsanguination at the prescribed times after dosing. Sprague-Dawley and Long-Evans rats were sacrificed one per time point at 0.5, 8.5, 24, 72, 168 and 336 hr post-dose. Immediately following euthanasia, each rat was totally immersed in a bath of hexane and dry ice (−75° C.) until frozen. Each carcass was dried and stored at −30° C. until embedded. […] Each frozen rat was sagitally sectioned at −20° C. A sufficient number of sections were collected to ensure sampling of all tissues of interest. The sections were dehydrated overnight in a cryochamber and then rapidly transferred to a dessicator containing CaSO4 to prevent condensation of atmospheric moisture while equilibrating to room temperature. The sections were mounted on cardboard and labeled with [^14C]-labeled black ink with a unique identification number. […] A small piece of Scotch tape was placed over the dried radioactive ink to prevent the contamination of the storage phosphor screens. Phosphor imaging plates, BAS-SR 2025 (Fuji Photo Film Co., Japan) were exposed to bright visible light for 20 minutes using an IP eraser (Raytest, USA Inc., New Castle, Del.) to remove background radiation. Sections and calibration blood standards were concurrently placed in direct contact with Ips and exposed for 7 days. All sections were stored at room temperature in a lead shielding box to minimize background levels. Phosphor images were generated using a Fujifilm BAS-5000 Bio-Imaging Analyzer and quantitated by MCID M2 Software, version 3.2 (Imaging Research Inc., St. Catherines, Ontario, Canada). The STDs and QCs were analyzed using the circular sampling tool in the MCID software program. Areas of interest in whole-body sections were manually outlined with the regional sampling tool to generate count data. Radioactive concentrations in select tissues were determined by digital analysis of the resulting autoradiograms on the basis of a calibration curve. […] The linear regression curve was then used to determine the concentration of unknown radioactivity of study samples. […] Blood samples were combusted using a Model 307 sample oxidizer (Packard Instrument Company). […] Research Triangle Park, N.C.), which applies a model-independent approach and standard procedures as described in Gibaldi and Perrier. Gibaldi, Pharmacokinetics, 1982. […] For IV infusion dosing, C30 min was the concentration at 30 minutes, the first sampling time point. The maximum plasma concentration (Cmax) and the corresponding time of peak concentration following IV administration were obtained directly by numerical inspection from the individual concentration-time data. The terminal half-life was calculated by the ratio of ln2/λz where λz is derived from the terminal slope of the concentration time curve. The area under the plasma concentration versus time curve from zero to infinity was calculated using the trapezoidal rule, where Clast is the last measurable plasma concentration. Tissue to plasma concentration ratios were calculated according to the following equation: Ctissue/Cplasma, where Ctissue equals the drug concentration in tissue (ng equiv./g), and Cplasma equals the drug concentration in plasma (ng equiv./g).

[4] = average grade, t=14 versus t=56 days
[5] = individual rabbits, left tibia, 8 weeks after infection

With `CN(C)c1cc(NC(=O)CNC(C)(C)C)c(O)c2c1C[C@H]1C[C@H]3[C@H](N(C)C)C(O)=C(C(N)=O)C(=O)[C@@]3(O)C(O)=C1C2=O` [Tigecycline] the “clinical outcome (MRI)” value (Acinetobacter baumannii) was “resolution of the osteomyelitis”, the “radiographic improvement (grade)” value [1, 4] was 0.9+/−0.1 and the “radiographic improvement (percent)” value [1, 4] was 40.9%. For the same compound, the “rabbits/samples positive for MRSA in bone” value ([1]; bone cultures at sacrifice) was 1 out of 10 and one rabbit of 10, the “proportion of positive cultures in marrow” value ([1]; compared with 0.33 (5/15) in control group) was 0 and the “bacterial outcome in bone and marrow, in words” value ([1]; end of study, MRSA infected rabbits) was “lower colony forming units in bone and marrow”. The “Counts (CFU/gm) Bone” value [1, 5] was 178.6 CFU/gm and 0 CFU/gm (9×), the “Counts (CFU/gm) Marrow” value [1, 5] was 0 CFU/gm and the “rabbits infected in bone marrow” value ([1]; marrow cultures at sacrifice) was “no infection”. The “average radiographic grade versus control group” value ([1]; t=56 days, p<0.05) was “significantly lower”, the “average bacterial concentration of the group” value ([1]; tibia bone) was 20 CFU/gram bone and the clinical outcome (Mycobacterium abscessus) was “doing well a year after the treatment”. For the same compound, the MIC [2] was 0.125 µg/mL (≈ 0.213 µM).

For `CN(C)c1cc(NC(=O)CNC(C)(C)C)c(O)c2c1C[C@H]1C[C@H]3[C@H](N(C)C)C(O)=C(C(N)=O)C(=O)[C@@]3(O)C(O)=C1C2=O` [[^14C]-Tigecycline], the AUC ([3]; Blood) was 21954 Ng eq hr/g, the T1/2 ([3]; Blood) was 62 h and the “Mean concentration of total radioactivity” value (shortened to “Mean concentration”) ([3]; Blood, 0.5 Hrs) was 1296 ng equiv./g. For the same compound, the “Tissue:Plasma Ratio” value ([3]; Blood, 0.5 Hrs) was 1.33, the “Mean concentration” value ([3]; Blood, 24 Hrs) was 340 ng equiv./g and the “Tissue:Plasma Ratio” value ([3]; Blood, 24 Hrs) was 4.81. The “Mean concentration” value ([3]; Blood, 72 Hrs) was 11.8 ng equiv./g, the “Tissue:Plasma Ratio” value ([3]; Blood, 72 Hrs) was 5.05 and the “Mean concentration” value ([3]; Blood, 168 Hrs) was 2.72 ng equiv./g. The “Tissue:Plasma Ratio” value ([3]; Blood, 168 Hrs) was 5.05, the “Mean concentration” value ([3]; Blood, 336 Hrs) was 1.24 ng equiv./g and the AUC ([3]; Blood, first AUC column) was 21843 Ng eq hr/g. The AUC ([3]; Plasma) was 12938 Ng eq hr/g, the T1/2 ([3]; Plasma) was 19 h and the “Mean concentration” value ([3]; Plasma, 0.5 Hrs) was 975 ng equiv./g. For the same compound, the “Tissue:Plasma Ratio” value ([3]; Plasma, 0.5 Hrs) was 1.00, the “Mean concentration” value ([3]; Plasma, 24 Hrs) was 70.5 ng equiv./g and the “Tissue:Plasma Ratio” value ([3]; Plasma, 24 Hrs) was 1.00. The “Mean concentration” value ([3]; Plasma, 72 Hrs) was 4.31 ng equiv./g, the “Tissue:Plasma Ratio” value ([3]; Plasma, 72 Hrs) was 1.00 and the “Mean concentration” value ([3]; Plasma, 168 Hrs) was under 1.03 ng equiv./g. For the same compound, the “Tissue:Plasma Ratio” value ([3]; Plasma, 168 Hrs) was 1.00, the “Mean concentration” value ([3]; Plasma, 336 Hrs) was under 1.03 ng equiv./g and the AUC ([3]; Plasma, first AUC column) was 12923 Ng eq hr/g. It also gave an AUC ([3]; Skin) of 109296 Ng eq hr/g, a Cmax ([3]; Skin) of 1997 Ng equiv/g and a T1/2 ([3]; Skin) of 473 h. For the same compound, the “tissue concentration at 336 hours as % of Cmax” value ([3]; Skin) was 8%, the “Mean concentration” value ([3]; Skin, 0.5 Hrs) was 2502 ng equiv./g and the “Tissue:Plasma Ratio” value ([3]; Skin, 0.5 Hrs) was 2.05. For the same compound, the “Mean concentration” value ([3]; Skin, 24 Hrs) was 2363 ng equiv./g, the “Tissue:Plasma Ratio” value ([3]; Skin, 24 Hrs) was 8.76 and the “Mean concentration” value ([3]; Skin, 72 Hrs) was 1787 ng equiv./g. The “Tissue:Plasma Ratio” value ([3]; Skin, 72 Hrs) was 179, the “Mean concentration” value ([3]; Skin, 168 Hrs) was 351 ng equiv./g and the “Tissue:Plasma Ratio” value ([3]; Skin, 168 Hrs) was 179. The “Mean concentration” value ([3]; Skin, 336 Hrs) was 211 ng equiv./g, the AUC ([3]; Skin, first AUC column) was 58287 Ng eq hr/g and the AUC ([3]; Uveal Tract) was 233288 Ng eq hr/g. The Cmax ([3]; Uveal Tract) was 2502 Ng equiv/g, the T1/2 ([3]; Uveal Tract) was 201 h and the “tissue concentration at 336 hours as % of Cmax” value ([3]; Uveal Tract) was 1%. For the same compound, the “Mean concentration” value ([3]; Uveal Tract, 0.5 Hrs) was 1997 ng equiv./g, the “Tissue:Plasma Ratio” value ([3]; Uveal Tract, 0.5 Hrs) was 2.57 and the “Mean concentration” value ([3]; Uveal Tract, 24 Hrs) was 124 ng equiv./g. The “Tissue:Plasma Ratio” value ([3]; Uveal Tract, 24 Hrs) was 25.7, the “Mean concentration” value ([3]; Uveal Tract, 72 Hrs) was 96.5 ng equiv./g and the “Tissue:Plasma Ratio” value ([3]; Uveal Tract, 72 Hrs) was 393. The “Mean concentration” value ([3]; Uveal Tract, 168 Hrs) was 74.8 ng equiv./g, the “Tissue:Plasma Ratio” value ([3]; Uveal Tract, 168 Hrs) was 393 and the “Mean concentration” value ([3]; Uveal Tract, 336 Hrs) was 19.3 ng equiv./g. The AUC ([3]; Uveal Tract, first AUC column) was 131346 Ng eq hr/g and the T1/2 ([3]; Uveal Tract, listed as [^14C]-tigecycline) was 20 h.
